Experimental data published in US10618904B2 (priority 2016, dated 2020).
Converted amounts (≈) assume the structure as drawn. “And” between values parts separate entries of the source, which are not always exact repeats. Identical values can stand only once. Like-named read-outs stand apart in the source and are kept apart here.

Assays:
[1] = prior art information; cited from earlier work
[2] = statement of CN103221414B / CN201280003321.6, cited from earlier work
[3] = Solubility in water of screened salts (Table 2)
Description: (§1) In order to achieve the above water solubility goal, the inventors have conducted studies from various aspects, e.g., crystal forms of existing salts, preparation excipients, formation of new salt types, etc., hoping to find a feasible means that can improve water solubility while ensuring better druggability.

[4] = Hygroscopicity of screened salts (Table 2); assay type: physicochemical
Description: as §1

[5] = cited from earlier work
[6] = Activity of degradation impurity relative to compound of formula (I); settings: fraction of parent activity
Procedure: [drawing 4] the impurity having an activity which is 1/300 of that of the compound of formula (I). […] Whether the stability is good or not is also a key factor in selecting the crystal form of the compound. Accordingly, it is preferred in the present invention that the hydrobromide of the compound of the formula (I) is present in the form of α crystal form. […] In the differential scanning calorimetry of the α crystal form, there is a melting endothermic peak at 170° C.±2° C. Therefore, in the present invention, the structure of the α crystal form is defined by the above-mentioned powder diffraction characteristic peaks and DSC melting peak, and on the basis of this definition, the α crystal form can be clearly distinguished from other three crystal forms.

[7] = 40 degrees, RH75% closed, 4 weeks
[8] = 40 degrees, RH75% closed and 60 degrees open, 34 days

COC(=O)CC[C@@H]1N=C(c2ccccn2)c2cc(Br)ccc2-n2c(C)cnc21.Cc1ccc(S(=O)(=O)O)cc1 [Remimazolam tosylate]
Solubility in water [1]: ~10 mg/mL and ~11 mg/mL
toxicity compared with besylate / benzene sulfonic acid [2]: less toxic than benzene sulfonic acid
toxicity compared with besylate / benzene sulfonic acid ([2]; listed as tosylate of the compound of the formula (I)): less toxic than besylate

COC(=O)CC[C@@H]1N=C(c2ccccn2)c2cc(Br)ccc2-n2c(C)cnc21
solubility ([3]; water): > 100 mg/mL

O=S(=O)(O)c1cccc2c(S(=O)(=O)O)cccc12 [1,5-naphthalene disulfonate]
Hygroscopicity (%) [4]: 15.9%
Solubility in water [3]: 1 mg/mL

COC(=O)CC[C@@H]1N=C(c2ccccn2)c2cc(Br)ccc2-n2c(C)cnc21 [crystal form 3]
Hygroscopicity (%) ([4]; listed as Hydrobromide crystal form 3): 5%
Solubility in water [3]: >100 mg/mL

COC(=O)CC[C@@H]1N=C(c2ccccn2)c2cc(Br)ccc2-n2c(C)cnc21.O=S(=O)(O)O [(bi)sulfate form 2]
Hygroscopicity (%) [4]: 24.9%
Solubility in water [3]: >100 mg/mL

COC(=O)CC[C@@H]1N=C(c2ccccn2)c2cc(Br)ccc2-n2c(C)cnc21.O=S(=O)(O)O [(bi)sulfate form 1]
Hygroscopicity (%) [4]: 0.1%

COC(=O)CC[C@@H]1N=C(c2ccccn2)c2cc(Br)ccc2-n2c(C)cnc21.O=S(=O)(O)c1ccccc1 [Remimazolam besylate]
Solubility in water [1]: 8.3 mg/mL
degradation [5, 7]: 0.5%

COC(=O)CC[C@@H]1N=C(c2ccccn2)c2cc(Br)ccc2-n2c(C)cnc21 [Remimazolam, methyl 3-[(4s)-8-bromo-1-methyl-6-(2-pyridyl)-4H-imidazol[1,2-a][1,4]benzodiazepine-4-yl] propionate]
Solubility in water [1]: Almost insoluble in water
Hygroscopicity (%) ([4]; listed as Free base): 1.7%
appearance change [5, 8]: yellowing at 40 degrees, RH75% closed and 60 degrees
degradation [5, 8]: 1.5-8%
stability of sample ([5]; 40° C./75% relative humidity (open), reported in CN101501019): deliquescent, discolored, and significantly reduced in content
Solubility in water (mg/mL) [3]: almost

COC(=O)CC[C@@H]1N=C(c2ccccn2)c2cc(Br)ccc2-n2c(C)cnc21 [α crystal form]
Hygroscopicity (%) ([4]; listed as Hydrobromide crystal form α): 2.5%
Solubility in water [3]: >100 mg/mL

COC(=O)CC[C@@H]1N=C(c2ccccn2)c2cc(Br)ccc2-n2c(C)cnc21 [Remimazolam esylate]
Solubility in water [1]: 7.8 mg/mL (≈ 17.8 mM)
degradation [5, 7]: 0.2%

COC(=O)CC[C@@H]1N=C(c2ccccn2)c2cc(Br)ccc2-n2c(C)cnc21 [crystal form 1]
Hygroscopicity (%) ([4]; listed as Hydrobromide crystal form 1): 4.6%
Solubility in water [3]: >100 mg/mL

Cc1cnc2n1-c1ccc(Br)cc1C(c1ccccn1)=N[C@H]2CCC(=O)O
activity relative to that of the compound of formula (I) [6]: 1/300

COC(=O)CC[C@@H]1N=C(c2ccccn2)c2cc(Br)ccc2-n2c(C)cnc21.Cl [Hydrochloride]
Hygroscopicity (%) [4]: 2.8%
Solubility in water [3]: >100 mg/mL

COC(=O)CC[C@@H]1N=C(c2ccccn2)c2cc(Br)ccc2-n2c(C)cnc21 [crystal form 2]
Solubility in water [3]: >100 mg/mL
